Columns and labels:
p-Btk/t-Btk = test: Western blotting of p-Btk/t-Btk in anti-IgG stimulated DOHH2 cells; format: cell-based; conditions: DOHH2 cells, 5, 100, 2000 nM, 1 h, anti-IgG stimulation
Protocol: Biological Embodiment 4: Analysis of Influences of Test Compounds on p-Btk/t-Btk, p-PLCγ/t-PLCγ and p-Erk/t-Erk Expression Levels of DOHH2 Cells by Virtue of Western Blotting
1) DOHH2 cells on a logarithmic phase were collected;
2) a cell concentration was adjusted to a needed concentration;
3) 2 ml of cell suspension was added into a 6-well plate for performing culture, three different concentrations, that is, 5 nM, 100 nM and 2000 nM, of test samples were respectively set, and each concentration was repeated once;
4) test samples were added into plate wells, and DMSO served as control, wherein a final concentration of the DMSO was 0.1%;
5) culture was performed for 1 h; and […]
6. protein extraction and quantification […]
5) a protein concentration was determined by using Pierce™ BCA Protein Assay Kit; and
6) according to BCA protein quantification results, all samples were diluted to the same final concentration by adding 4×LDS sample buffer and 10× sample reducing agent into the RIPA buffer solution, and the solution was heated at 100° C. for 10 min. […]
10) chemiluminiscence was detected by Tanon 5200 multi.
7. Quantification of strip intensity
Intensity of each strip was quantified by using Image quant densitometry software. […]

TMD8 = test: In vitro tumor cell proliferation (CellTiter-Glo), TMD8; format: cell-based; conditions: Homo sapiens, TMD8, 72 h; read-out: Growth IC50
Protocol: (§1) Biological Embodiment 8: Study on Effects of Active Compounds for Inhibiting In Vitro Tumor Cell Proliferation
(§2) Promega CellTiter-Glo cell activity detection kit by luminescence (Promega-G7573).
(§3) Tumor cell lines were cultured in a 5% of CO2 incubator at 37° C. according to respective culture conditions; and periodic passage was performed, and cells positioned in a logarithmic phase were taken for planking.
(§4) 3) 90 μL of cell suspension was added into each well of the culture plate, and a culture solution containing no cell was added into blank control;
(§5) 4) the culture plate was cultured overnight in the 5% of CO2 incubator having relative humidity of 100% at 37° C.
(§6) Preparation of a 400× compound storage plate: the compound was diluted from the maximum concentration gradient to the lowest concentration with DMSO. […]
(§7) The following steps were performed according to the specification of the Promega CellTiter-Glo cell activity detection kit by luminescence (Promega-G7573). […]
(§8) 9) the luminescence signal was detected on the 2104 EnVision plate reader.

SU-DHL-6 = test: In vitro tumor cell proliferation (CellTiter-Glo), SU-DHL-6; format: cell-based; conditions: Homo sapiens, SU-DHL-6, 72 h; read-out: Growth IC50
Protocol: as §1, §2, §3, §4, §5, §6, §7, §8

LynA = LynA (Homo sapiens, UniProt P07948); test: Btk selectivity over LynA (same kinase method, Btk replaced); format: biochemical; conditions: ratio of IC50 values
Protocol: Other kinases (e.g., inhibitory activity of Lck and LynA is determined by replacing the Btk with various kinases and performing operations the same as that in the above method).

OCI-LY19 = test: In vitro tumor cell proliferation (CellTiter-Glo), OCI-LY19; format: cell-based; conditions: Homo sapiens, OCI-LY19, 72 h; read-out: Growth IC50
Protocol: as §1, §2, §3, §4, §5, §6, §7, §8

T cells = test: T cell activation (CD3/CD28 dynabeads, CD69 staining); format: cell-based, Human; conditions: concentration of 10 uM
Protocol: Biological Embodiment 3: Influences of In-Vitro Test Compounds on PBMC/B/T Cell Activation
4.3 Isolation of B Cells and T Cells
Cell Isolation Programs Shall Refer to […] Kits
4.4.3 Activation of T Cells
The co-culture system is as follows:
Antibody Staining and Data Analysis
Antibody staining was performed within 24 hours […] according to a standard method.
4.5.2 Activation of T Cells
FITC Mouse Anti-Human CD4
PerCP-Cy™5.5 Mouse Anti-Human CD8
LIVE/DEAD Fixable Violet Dead Cell Stain Kit

SU-DHL-10 = test: In vitro tumor cell proliferation (CellTiter-Glo), SU-DHL-10; format: cell-based; conditions: Homo sapiens, SU-DHL10; SU-DHL-10, 72 h; read-out: Growth IC50
Protocol: as §1, §2, §3, §4, §5, §6, §7, §8

WSU-DLCL-2 = test: In vitro tumor cell proliferation (CellTiter-Glo), WSU-DLCL-2; format: cell-based; conditions: Homo sapiens, WSUDLCL2; WSU-DLCL-2, 72 h; read-out: Growth IC50
Protocol: as §1, §2, §3, §4, §5, §6, §7, §8

LynA, sequence (P07948 whole entry): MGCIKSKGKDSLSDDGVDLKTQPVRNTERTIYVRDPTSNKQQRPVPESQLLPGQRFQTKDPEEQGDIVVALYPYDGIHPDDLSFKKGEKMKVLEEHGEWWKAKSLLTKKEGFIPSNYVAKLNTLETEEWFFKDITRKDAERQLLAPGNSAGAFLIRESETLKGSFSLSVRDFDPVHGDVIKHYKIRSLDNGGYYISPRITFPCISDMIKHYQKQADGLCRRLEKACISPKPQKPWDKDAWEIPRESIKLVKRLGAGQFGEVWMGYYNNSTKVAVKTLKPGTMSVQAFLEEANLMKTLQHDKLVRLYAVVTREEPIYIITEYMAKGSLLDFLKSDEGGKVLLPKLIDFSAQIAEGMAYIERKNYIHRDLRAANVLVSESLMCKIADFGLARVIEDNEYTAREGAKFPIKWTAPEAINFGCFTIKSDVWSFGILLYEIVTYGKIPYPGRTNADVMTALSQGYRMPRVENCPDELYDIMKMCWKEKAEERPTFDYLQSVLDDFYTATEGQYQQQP

C=CC(=O)NN1CCCC(n2nc(-c3ccc(Oc4ccccc4)cc3)c3c(N)ncnc32)C1 (centres unmarked) [Embodiment 6, N-(3-(4-amino-3-(4-phenoxyphenyl)-1H-pyrazolo[3,4-D]pyrimidine-1-yl)-1-piperidyl)-acrylamide] was tested, and the “relative level of p-Btk/t-Btk” value (p-Btk/t-Btk) was “obviously decreased”, the IC50 (TMD8) was 0.00085 µM and the IC50 (SU-DHL-6) was over 10 µM. For the same molecule, the “LynA[IC50]/Btk[IC50]” value (LynA) was 137, the IC50 (OCI-LY19) was 6.79 µM and the “T cell activity inhibition effect” value (T cells) was “T cell activity inhibition effect”. The IC50 (SU-DHL-10) was over 10 µM and the IC50 (WSU-DLCL-2) was 0.921 µM.
